Experimental data published in US20190389841A1, “COMPOUNDS FOR TREATMENT OF TRIPLE NEGATIVE BREAST CANCER AND OVARIAN CANCER” (UNIVERSITY OF TENNESSEE RESEARCH FOUNDATION, priority 2018, published 2019).
Where two headings read alike, the source gives them in different places.

What was measured:
MDA-MB-231 xenografts = test: Orthotopic TNBC xenograft model, 18 days
MDA-MB-231 cells [1] = test: Experimental lung metastasis model (tail vein); settings: 10 mg/kg, 22 days of treatment
MDA-MB-468 [2] = test: cells; settings: Homo sapiens
MDA-MB-468 [3] = test: Colony formation assay; format: cell-based, human; settings: 8 nM, MDA-MB-468 cells
Method: (§1) Colony formation assay. […] The medium of each group was renewed once a week. […] The morphology of colonies was captured under a microscope and colony area was quantified using ImageJ software (NIH, Bethesda, Md.). The drug treatment was performed in triplicate.

MDA-MB-231 = test: Colony formation assay; format: cell-based, human; settings: 8 nM
Method: as §1

[4] = test system: MDA-MB-231 xenograft tumors; test: H&E and IHC analysis of orthotopic TNBC tumors; format: in vivo, NSG mice; settings: 12.5 mg/kg
[5] = test system: paclitaxel resistant PC-3 cells; test: In vitro cytotoxicity after 96 hours; format: cell-based
MDA-MB-231 cells [6] = test: Scratch assay (cell migration); format: cell-based, human; settings: 16 nM
Method: Cell migration was also analyzed by the scratch assay. […] The following day, a scratch was made in the cell monolayer by using a sterile 200-μl pipette tip. […] After 12 h, 24 h and 48 h, the wound width was determined and imaged with Evos Fl Imaging System (Life Technologies, Carlsbad, Calif.). The extent of wound closure was shown as the percentage of decrease of the original scratch width at each measured time point. Experiments were done in triplicate.

[7] = test system: TNBC spontaneous lung metastasis; test: Spontaneous lung metastasis in orthotopic TNBC model; format: in vivo, mice; settings: 12.5 mg/kg
PC-3/TxR tumors = test: Paclitaxel resistant prostate cancer xenograft; settings: in vivo
Brain penetration = format: in vivo
[8] = after 48 hours, MDA-MB-231 as printed

Q: For `CC(=O)O[C@H]1C(=O)[C@@]2(C)[C@H]([C@H](OC(=O)c3ccccc3)[C@]3(O)C[C@H](OC(=O)[C@H](O)[C@@H](NC(=O)c4ccccc4)c4ccccc4)C(C)=C1C3(C)C)[C@]1(OC(C)=O)CO[C@@H]1C[C@@H]2O` [paclitaxel], which “average final tumor weight” value (MDA-MB-231 xenografts; 12.5 mg/kg) is on record?
A: The value was 0.38 g.

Q: What about the “body weight during treatment” value (MDA-MB-231 xenografts; 18 days, paclitaxel 12.5 mg/kg) of the same molecule?
A: The value was “decreased mice body weight significantly”.

Q: What about the “body weights and physical activities of mice” value (MDA-MB-231 cells [1]) of the same molecule?
A: Its value is “slightly decreased”.

Q: What about the “lung metastasis of TNBC” value (MDA-MB-231 cells [1]) of the same molecule?
A: The value was “significantly inhibited lung metastasis”.

Q: And the IC50 (MDA-MB-468 [2]; MDA-MB-468, read-out: IC50 (FIG. 37))?
A: Its IC50 is 4.61 nM.

Q: And the IC50 (MDA-MB-468 [2]; MDA-MB-468, read-out: IC50, cell viability)?
A: The IC50 was 4.61 nM.

Q: What about the “reductions in colony formation” value (MDA-MB-468 [3]) of the same molecule?
A: Its value is 7.4%.

Q: What about the “relative percentage of colonies” value (MDA-MB-231) of the same molecule?
A: The value was 27.5%.

Q: What about the “necrotic area of tumors” value [4] of the same molecule?
A: The value was 41.5%.

Q: What about the “potency in paclitaxel resistant PC-3 cells” value [5] of the same molecule?
A: The value was “lose potency”.

Q: And the “average migration rate, scratch assay” value (MDA-MB-231 cells [6]; after 24 hours)?
A: The value was 13.3%.

Q: And the “average migration rate, scratch assay” value (MDA-MB-231 cells [6]; [8])?
A: The value was 14.5%.

Q: What about the “spontaneous lung metastasis, mice” value [7] of the same molecule?
A: Its value is “all eight mice had no metastasis”.

Q: For `COc1cc2c(c(OC)c1OC)-c1ccc(OC)c(=O)cc1[C@@H](NC(C)=O)CC2` [colchicine], which “reductions in colony formation” value (MDA-MB-468 [3]) is on record?
A: Its value is 51%.

Q: What about the “average migration rate, scratch assay” value (MDA-MB-231 cells [6]; after 24 hours) of the same molecule?
A: The value was 67.3%.

Q: What about the “average migration rate, scratch assay” value (MDA-MB-231 cells [6]; [8]) of the same molecule?
A: Its value is 15.8%.

Q: Which “potency in paclitaxel resistant PC-3 cells” value [5] does the source give for `CC(=O)O[C@@]12CO[C@@H]1C[C@H](O)[C@@]1(C)C(=O)[C@H](O)C3=C(C)[C@@H](OC(=O)[C@H](O)[C@@H](NC(=O)OC(C)(C)C)c4ccccc4)C[C@@](O)([C@@H](OC(=O)c4ccccc4)[C@H]21)C3(C)C` [docetaxel] here?
A: The value was “lose potency”.

Q: And the “efficacy in PC-3/TxR tumors” value (PC-3/TxR tumors)?
A: Its value is “lack of efficacy”.

Q: With `COc1cc(C(=O)c2csc(Nc3ccc4[nH]ccc4c3)n2)cc(OC)c1OC` [Compound 55, (2-(1H-indol-5-ylamino)thiazol-4-yl)(3,4,5-trimethoxyphenyl)methanone] as the molecule, how does the Kp at 4 h (Brain penetration; brain, 4 h after oral treatment, read-out: Brain/plasma concentration ratio) read?
A: The Kp at 4 h was about 0.2.

Q: What about the “Brain/plasma concentration ratios over time” value (Brain penetration; in vivo) of the same molecule?
A: Its value is “remained relatively constant over time”.

Q: What about the brain penetration (Brain penetration; in vivo) of the same molecule?
A: The brain penetration was “high brain penetration”.
